Measured values from patent US10730922B2, “Composition and method for affecting the binding of antigen-binding polypeptides to antigens” (Miltenyi Biotec GmbH, priority 2016, dated 2020).

How the values were obtained:
Format in all cases: binding, human
CD14 = assay: Competitive staining of PBMC with anti-CD14 scFv-CaM-fusions, flow cytometry; details: peptide in molar excess, FIG. 7A
Source text: (§1) To investigate whether the linkers identified to provide modulation of binding in scFv D1.3 can be used as a “universal” module to change binding properties in other scFv fragments than D1.3, the characterized CaM-linker variants were cloned into other scFv antibodies with different specificities. The specificities were chosen according to their utility in future cell staining and separation applications, with two scFvs directed against different human clusters of differentiation (CD14, CD4) and the small hapten biotin. To identify M13 peptide-dependent scFv-CaM-variants for those specificities, human blood cells (PBMC) were stained using purified scFvs and subsequently analysed by flow cytometry. Bound scFvs were detected with fluorescently labeled anti-His-antibodies.
(§2) The production and purification of different scFv-fusions was performed as described in Example 3. All antibodies and staining reagents used for flow cytometry applications were from Miltenyi Biotec (Bergisch Gladbach, Germany). For stainings with anti-Biotin scFv-variants, PBMC (peripheral blood mononuclear cells) were prestained with appropriate IgG-conjugates. The stainings were performed in 1.5 mL microtubes. 1×10^6 PBMC per sample were incubated on ice for 10 min in 110 μL 1×B-TBS (1×TBS+0.5% [w/v] bovine serum albumin)+5 mM CaCl2 (pH 7.4) containing anti-CD14-Biotin (dilution: 1:11). The reaction was stopped by addition of 1 mL buffer and centrifugation at 300 g for 5 min at 4° C. The supernatant was removed completely and the pellet was stored on ice and resuspended in buffer immediately before the next staining step. The following stainings were performed in 96-well polypropylene plates. Purified scFvs were diluted to appropriate concentrations in 50 μL 1×B-TBS/5 mM CaCl2 (pH 7.4 [anti-Biotin] or pH 8.0 [anti-CD14, anti-CD4]) per well. For competitive screenings, peptide (M13 peptide [Anaspec, Fremont, USA], M13-variants library and CBP (calmodulin-binding peptide) library [Genscript, Piscataway, USA]) was added in molar excess in a total volume of 5 μL per well, whereas the control stainings were supplied with 5 μL 1×B-TBS/5 mM CaCl2. The diluted scFvs were preincubated for 45 min at RT and afterwards chilled on ice for 5 min. […]
(§3) Calmodulin binds to a variety of binding partners. […] On the one hand, 38 mutated variants of the M13 peptide were analysed, e.g. substitution mutants known to have higher affinities for calmodulin, truncated variants and combinations thereof. In addition, 29 peptides derived from further calmodulin-binding proteins like calcium ATPase, spectrin and nitric oxidase synthase were analysed with regard to potential binding modulating properties. […]

CD4 = assay: Competitive staining of PBMC with anti-CD4 scFv-CaM-fusions, flow cytometry; details: FIG. 7C
Source text: as §1, §2, §3

[1] = Competitive staining of anti-CD14-Biotin prestained PBMC with anti-Biotin scFv-CaM-fusions, flow cytometry; details: opposite relative to M13 peptide, FIG. 7B
Source text: as §1
The production and purification of different scFv-fusions was performed as described in Example 3. […]
as §3

For “CBP-Var8: calmodulin-binding peptide, a derivative of spectrin (KTASPWKSARLMVHTVATFNSIKE; CBP-Var8; peptide from protein of Homo sapiens)”, the “signal change compared to M13 peptide, anti-CD14 scFv C-terminally permutated and linear variant” value (CD14) was “slightly higher decrease”.

In the case of “M13 peptide: calmodulin-binding peptide M13 (residues 577-602 of skeletal muscle myosin light chain kinase) [reference compound]”, the “change in binding signal, linear anti-CD4 scFv clone” value (CD4) is reported as “did not have any influence at all” and the “change in binding signal, C-terminally permutated clones of anti-CD4 scFv” value (CD4; peptide in molar excess, 'the same effect' refers to further increase in fluorescence intensity) is reported as “increase in binding signal”.

For “CBP-Var6: another derivative of calcium-transporting ATPase (RGQILWFRGLNRIQTQIKVVNAFS; CBP-Var6; peptide derived from protein of Gallus gallus)”, the “switching behaviour, anti-Biotin scFv-CaM-fusions M-1, M-2” value [1] was “opposite switching behaviour” and the “change in fluorescence intensity, anti-CD4 scFv M-variants” value (CD4; relative to M13 peptide) was “further increase in fluorescence intensity”.

For “M13-Var5: variant of the known high affinity mutant of M13 (RWKKAFIAVSAANRFKKIS; M13-Var5)”, the “signal change compared to M13 peptide, anti-CD14 scFv clones permutated in the middle of CaM and linear clone” value (“signal change … of CaM and linear clone” for short) (CD14) was “higher signal decrease”.

In the case of “CBP-Var10: derived from ionotropic glutamate receptor NMDA1 (KKKATFRAITSTLASSFKRRRSSK; CBP-Var10; peptide from protein of Homo sapiens)”, the “change in binding signal, linear anti-CD4 scFv clone” value (CD4) is reported as “unexpected decrease in binding signal”.

In the case of “M13-Var6: variant of the known high affinity mutant of M13 (WKKAFIAVSAANRFKKIS; M13-Var6)”, the “signal change … of CaM and linear clone” value (CD14) is reported as “higher signal decrease”.

In the case of “M13-Var7: variant of the known high affinity mutant of M13 (RWKKAFIAVSAANRFKKI; M13-Var7)”, the “signal change … of CaM and linear clone” value (CD14) is reported as “higher signal decrease”.
